In the experiment the target is T1, hTLR7 (Homo sapiens, UniProt Q9NYK1).
T1 construct: host or cells: HEK293
T1 sequence (Q9NYK1 27-1049): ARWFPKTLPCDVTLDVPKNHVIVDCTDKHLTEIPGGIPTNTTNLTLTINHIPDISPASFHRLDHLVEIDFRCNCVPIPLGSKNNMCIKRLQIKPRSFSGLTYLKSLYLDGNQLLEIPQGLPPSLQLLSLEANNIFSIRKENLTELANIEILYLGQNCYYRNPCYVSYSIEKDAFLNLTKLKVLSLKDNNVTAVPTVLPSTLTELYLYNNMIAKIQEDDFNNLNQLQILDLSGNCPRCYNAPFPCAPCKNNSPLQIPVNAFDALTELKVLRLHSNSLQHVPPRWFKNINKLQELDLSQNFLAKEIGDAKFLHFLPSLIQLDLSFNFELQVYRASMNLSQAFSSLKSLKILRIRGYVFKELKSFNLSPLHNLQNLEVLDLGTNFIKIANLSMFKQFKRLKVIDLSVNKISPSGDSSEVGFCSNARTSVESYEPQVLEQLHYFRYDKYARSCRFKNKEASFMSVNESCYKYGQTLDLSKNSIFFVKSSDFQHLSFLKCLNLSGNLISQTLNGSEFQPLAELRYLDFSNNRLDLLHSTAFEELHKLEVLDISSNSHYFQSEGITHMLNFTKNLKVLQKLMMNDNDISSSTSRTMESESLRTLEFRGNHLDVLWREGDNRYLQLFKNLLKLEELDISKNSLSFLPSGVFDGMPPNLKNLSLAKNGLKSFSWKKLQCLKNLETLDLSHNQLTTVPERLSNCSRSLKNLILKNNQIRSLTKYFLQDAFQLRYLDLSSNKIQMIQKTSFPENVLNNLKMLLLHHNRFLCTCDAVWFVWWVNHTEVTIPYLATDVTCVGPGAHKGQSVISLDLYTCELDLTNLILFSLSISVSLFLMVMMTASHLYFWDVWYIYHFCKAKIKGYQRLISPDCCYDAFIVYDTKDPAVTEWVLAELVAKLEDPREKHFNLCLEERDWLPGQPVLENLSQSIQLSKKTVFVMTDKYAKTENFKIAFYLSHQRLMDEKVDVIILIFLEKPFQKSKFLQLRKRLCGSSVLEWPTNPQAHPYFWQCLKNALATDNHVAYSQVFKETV
Nature of the experiment: TLR7 agonist activity, HEK293 hTLR7 SEAP reporter assay. It counts as cell-based. As to conditions: for EC50: HEK293 cotransfected with hTLR7 and inducible SEAP reporter gene, 24 h treatment, average ± SD of three independent replicates, n.a. = not active; for loss of activity/potency on TLR7 relative to parent compound 21a / plateau / maximum response (efficacy): HEK293-hTLR7 SEAP; for loss of activity/potency on TLR7 relative to parent compound 21a: EC50 compared with 21a; for plateau / maximum response (efficacy): less than twofold increase in maximum response. Here is the method:
TLR7 agonist activities were determined using the HEK293 cell line, which was cotransfected with the hTLR7 gene and an inducible SEAP reporter gene (InvivoGen, San Diego, California, USA) as described previously.[34] Briefly, cells were seeded in 96-well plates (3 × 10^4 cells/well) and incubated at 5% CO2 and 37 °C. After 24 h, the cells were treated with the solutions of the compounds in DMSO. Imiquimod was used as a PC. The cells were incubated again for 24 h under the same conditions. The activity of SEAP in the supernatant of the cells was measured using the QUANTI-Blue reagent (InvivoGen, San Diego, California, USA), according to the manufacturer's protocol. EC50 values were determined using GraphPad Prism 9.2.0. software (San Diego, California, USA) using the nonlinear regression curve fit and four-parameter logistic equation. All experiments were performed in three independent biological replicates. Values are given as averages from the independent measurements with standard deviations calculated.
A general note: Reporter assays use an easily measured gene product as a stand-in for the process of interest.

Like-named read-outs stand apart in the source and are kept apart here.

As usually defined, the EC50 is the midpoint of the concentration-response curve.

Regarding `CC1CCCN(c2nc(C(F)(F)F)nc3onc(-c4ccccc4)c23)C1` (stereo not shown) [Compound 14a, 4-(3-Methylpiperidin-1-yl)-3-phenyl-6-(trifluoromethyl)isoxazolo[5,4-d]pyrimidine], the EC50 result is “inactive”.

In the case of `CC(C)CNc1nc(C(F)(F)F)nc2onc(-c3ccccc3)c12` [Compound 14b, N-Isobutyl-3-phenyl-6-(trifluoromethyl)isoxazolo[5,4-d]pyrimidin-4-amine], the EC50 entry was “inactive”. For the compound `CC1CCCN(c2nc(C(F)(F)F)nc3onc(-c4ccc(Cl)cc4)c23)C1` (stereo not shown) [Compound 15a, 3-(4-Chlorophenyl)-4-(3-methylpiperidin-1-yl)-6-(trifluoromethyl)isoxazolo[5,4-d]pyrimidine], the EC50 (read-out: EC50) came out at 21.4 ± 2.8 µM. For `CC(C)CNc1nc(C(F)(F)F)nc2onc(-c3ccc(Cl)cc3)c12` [Compound 15b, 3-(4-Chlorophenyl)-N-isobutyl-6-(trifluoromethyl)isoxazolo[5,4-d]pyrimidin-4-amine], the EC50 entry is on record as “agonist activity was lost”. Regarding `CC1CCCN(c2nc(C(F)(F)F)nc3onc(-c4ccc(C(F)(F)F)cc4)c23)C1` (stereo not shown) [Compound 16a, 4-(3-Methylpiperidin-1-yl)-6-(trifluoromethyl)-3-(4-(trifluoromethyl)phenyl)isoxazolo[5,4-d]pyrimidine], the EC50 (read-out: EC50) was > 150 µM. In the case of `CC1CCCN(c2nc(C(F)(F)F)nc3onc(-c4cccc([N+](=O)[O-])c4)c23)C1` (stereo not shown) [Compound 19a, 4-(3-Methylpiperidin-1-yl)-3-(3-nitrophenyl)-6-(trifluoromethyl)isoxazolo[5,4-d]pyrimidine], the EC50 entry is recorded as “did not offer any change in activity”. The same measure, in the same setting: then `CC(C)CNc1nc(C(F)(F)F)nc2onc(-c3cccc([N+](=O)[O-])c3)c12` [Compound 19b, N-Isobutyl-3-(3-nitrophenyl)-6-(trifluoromethyl)isoxazolo[5,4-d]pyrimidin-4-amine], with “did not offer any change in activity”; and `CC(C)CNc1nc(C(F)(F)F)nc2onc(-c3ccc(F)cc3)c12` [Compound 21b, 3-(4-Fluorophenyl)-N-isobutyl-6-(trifluoromethyl)isoxazolo[5,4-d]pyrimidin-4-amine], with “no activity observed”; and `Fc1ccc(-c2noc3nc(C(F)(F)F)nc(NC4CC4)c23)cc1` [Compound 21c, N-Cyclopropyl-3-(4-fluorophenyl)-6-(trifluoromethyl)isoxazolo[5,4-d]pyrimidin-4-amine], with “inactive”. With `CC1CCCCN1c1nc(C(F)(F)F)nc2onc(-c3ccc(F)cc3)c12` (stereo not shown) [Compound 21e, 3-(4-Fluorophenyl)-4-(2-methylpiperidin-1-yl)-6-(trifluoromethyl)isoxazolo[5,4-d]pyrimidine], the “loss of activity/potency on TLR7 relative to parent compound 21a” value was “Approximately 10 fold” and the “plateau / maximum response (efficacy)” value is listed as “low plateau response”. Besides, the EC50 (read-out: EC50) worked out at 63.3 ± 9.8 µM. Taken in the same sequence, the figures for `CC1CCN(c2nc(C(F)(F)F)nc3onc(-c4ccc(F)cc4)c23)CC1` [Compound 21f, 3-(4-Fluorophenyl)-4-(4-methylpiperidin-1-yl)-6-(trifluoromethyl)isoxazolo[5,4-d]pyrimidine] were “Approximately 10 fold”, “low plateau response” and 68 ± 8.1 µM.

In the case of `CC1CN(c2nc(C(F)(F)F)nc3onc(-c4ccc(F)cc4)c23)CCO1` (stereo not shown) [Compound 21g, 3-(4-Fluorophenyl)-4-(2-methylmorpholino)-6-(trifluoromethyl)isoxazolo[5,4-d]pyrimidine], the “plateau / maximum response (efficacy)” value is listed as “low plateau response” and the EC50 entry is recorded as “retained the potency”. Further, the EC50 (read-out: EC50) is 11 ± 0.1 µM. With `CC1CN(c2nc(C(F)(F)F)nc3onc(-c4ccc(F)cc4)c23)CCN1` (stereo not shown) [Compound 21h, 3-(4-Fluorophenyl)-4-(3-methylpiperazin-1-yl)-6-(trifluoromethyl)isoxazolo[5,4-d]pyrimidine], the EC50 result is given as “lacked activity”.

As to `CN1CCN(c2nc(C(F)(F)F)nc3onc(-c4ccc(F)cc4)c23)CC1` [Compound 21j, 3-(4-Fluorophenyl)-4-(4-methylpiperazin-1-yl)-6-(trifluoromethyl)isoxazolo[5,4-d]pyrimidine], the EC50 result is “lacked activity”. Further, the EC50 (read-out: EC50) was > 150 µM. `CC1(C)CCCN(c2nc(C(F)(F)F)nc3onc(-c4ccc(F)cc4)c23)C1` [Compound 21o, 4-(3,3-Dimethylpiperidin-1-yl)-3-(4-fluorophenyl)-6-(trifluoromethyl)isoxazolo[5,4-d]pyrimidine]: the EC50 entry was “slightly less potent”. For the same compound, the EC50 (read-out: EC50) is 24.5 ± 1.6 µM. In the case of `Fc1ccc(-c2noc3nc(C(F)(F)F)nc(N4CCCC5(CC5)C4)c23)cc1` [Compound 21p, 3-(4-Fluorophenyl)-4-(5-azaspiro[2.5]octan-5-yl)-6-(trifluoromethyl)isoxazolo[5,4-d]pyrimidine], the EC50 result is given as “slightly less potent”. Also, the EC50 (read-out: EC50) is 17.5 ± 3 µM.

For `CC(C)C1CCCN(c2nc(C(F)(F)F)nc3onc(-c4ccc(F)cc4)c23)C1` (stereo not shown) [Compound 21q, 3-(4-Fluorophenyl)-4-(3-isopropylpiperidin-1-yl)-6-(trifluoromethyl)isoxazolo[5,4-d]pyrimidine], the “loss of activity/potency on TLR7 relative to parent compound 21a” value is “Approximately 10 fold”. Also, the EC50 (read-out: EC50) worked out at 81.1 ± 7 µM. For the compound `COC1CCN(c2nc(C(F)(F)F)nc3onc(-c4ccc(F)cc4)c23)C1` (stereo not shown) [Compound 21t, 3-(4-Fluorophenyl)-4-(3-methoxypyrrolidin-1-yl)-6-(trifluoromethyl)isoxazolo[5,4-d]pyrimidine], the EC50 (read-out: EC50) was > 150 µM. Still for that read-out and setting: then `Fc1ccc(-c2noc3nc(C(F)(F)F)nc(N4CCCC4)c23)cc1` [Compound 21v, 3-(4-Fluorophenyl)-4-(pyrrolidin-1-yl)-6-(trifluoromethyl)isoxazolo[5,4-d]pyrimidine], with > 150 µM.

Turning to `CC1CCCC(c2nc(C(F)(F)F)nc3onc(-c4ccc(F)cc4)c23)C1` (stereo not shown) [Compound 21y, 3-(4-Fluorophenyl)-4-(3-methylcyclohexyl)-6-(trifluoromethyl)isoxazolo[5,4-d]pyrimidine], the “plateau / maximum response (efficacy)” value is “low plateau response” and the EC50 result was “retained its activity”. For the same compound, the EC50 (read-out: EC50) is 15.9 ± 0.9 µM. Consider `CC1CCCN(c2nc(C(F)(F)F)nc3onc(-c4ccc(F)c(Br)c4)c23)C1` (stereo not shown) [Compound 22, 3-(3-Bromo-4-fluorophenyl)-4-(3-methylpiperidin-1-yl)-6-(trifluoromethyl)isoxazolo[5,4-d]pyrimidine], for which the EC50 (read-out: EC50) is 16.4 ± 0.1 µM. Still for that read-out and setting: the value for `CC1CCCN(c2nc(C(F)(F)F)nc3onc(Cc4ccc(F)c(F)c4)c23)C1` (stereo not shown) [Compound 23a, 3-(3,4-Difluorobenzyl)-4-(3-methylpiperidin-1-yl)-6-(trifluoromethyl)isoxazolo[5,4-d]pyrimidine] was 19.9 ± 3.1 µM.

The record behind these values is publication PMC10795023, “Structural Optimization and Biological Evaluation of Isoxazolo[5,4-d]pyrimidines as Selective Toll-Like Receptor 7 Agonists” (ACS Omega, 2024).
